From patent US12054463B2, “Radiolabeled microtubule imaging compounds and uses thereof” (The Trustees of Columbia University in the City of New York, priority 2017, dated 2024)

Assays:
Adenosine = assay: Affinity to brain targets (panel); assay type: binding; details: Adenosine (A)
α1A-1C = assay: Affinity to brain targets (panel); assay type: binding
BZP = assay: Affinity to brain targets (panel); assay type: binding; details: BZP: benzodiazepine
Ca++ channel = assay: Affinity to brain targets (panel); assay type: binding
AMPA = assay: Affinity to brain targets (panel); assay type: binding
NET = NET (Homo sapiens, UniProt P23975); assay: Affinity to brain targets (panel); assay type: binding; details: NET: norepinephrine transporter
Sequence of NET (P23975 whole entry): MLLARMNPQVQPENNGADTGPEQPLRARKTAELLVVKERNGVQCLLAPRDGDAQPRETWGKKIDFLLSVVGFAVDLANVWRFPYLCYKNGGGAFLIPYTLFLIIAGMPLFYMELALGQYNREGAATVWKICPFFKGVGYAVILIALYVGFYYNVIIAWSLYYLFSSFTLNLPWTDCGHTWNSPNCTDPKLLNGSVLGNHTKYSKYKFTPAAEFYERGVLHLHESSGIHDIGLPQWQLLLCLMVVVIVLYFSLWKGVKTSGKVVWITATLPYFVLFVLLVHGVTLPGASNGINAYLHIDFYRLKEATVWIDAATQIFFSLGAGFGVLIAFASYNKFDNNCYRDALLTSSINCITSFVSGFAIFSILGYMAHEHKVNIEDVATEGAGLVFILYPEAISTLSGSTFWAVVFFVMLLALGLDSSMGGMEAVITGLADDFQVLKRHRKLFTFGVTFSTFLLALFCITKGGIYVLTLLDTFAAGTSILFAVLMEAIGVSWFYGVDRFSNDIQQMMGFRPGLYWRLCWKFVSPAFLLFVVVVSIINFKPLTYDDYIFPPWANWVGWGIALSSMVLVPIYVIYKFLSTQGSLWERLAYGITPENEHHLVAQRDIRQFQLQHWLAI

NK = assay: Affinity to brain targets (panel); assay type: binding; details: NK: neurokinin
Sigma1 = Sigma1 (Homo sapiens, UniProt Q99720); assay: Affinity to brain targets (panel); assay type: binding
Sequence of Sigma1 (Q99720 whole entry): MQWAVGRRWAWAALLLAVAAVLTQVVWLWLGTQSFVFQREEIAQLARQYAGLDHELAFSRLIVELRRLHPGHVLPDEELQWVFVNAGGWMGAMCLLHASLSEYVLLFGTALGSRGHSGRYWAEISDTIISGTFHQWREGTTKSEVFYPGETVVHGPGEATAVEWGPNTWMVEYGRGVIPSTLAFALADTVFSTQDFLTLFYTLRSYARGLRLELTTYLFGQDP

Na+ Channel = assay: Affinity to brain targets (panel); assay type: binding
mGluR = assay: Affinity to brain targets (panel); assay type: binding; details: mGluR (mGluRs): metabotropic glutamate receptors
NOP = NOP (Homo sapiens, UniProt P41146); assay: Affinity to brain targets (panel); assay type: binding
Sequence of NOP (P41146 whole entry): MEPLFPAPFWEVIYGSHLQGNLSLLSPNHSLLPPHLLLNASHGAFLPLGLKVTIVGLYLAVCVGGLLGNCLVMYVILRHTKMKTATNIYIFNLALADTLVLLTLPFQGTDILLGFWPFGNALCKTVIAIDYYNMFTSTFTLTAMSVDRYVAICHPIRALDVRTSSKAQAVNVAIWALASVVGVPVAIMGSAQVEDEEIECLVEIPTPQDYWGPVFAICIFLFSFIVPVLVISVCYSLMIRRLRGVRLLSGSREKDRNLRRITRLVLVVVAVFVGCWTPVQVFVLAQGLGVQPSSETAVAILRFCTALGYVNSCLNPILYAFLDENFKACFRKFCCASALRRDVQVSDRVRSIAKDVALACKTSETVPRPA

PBR = PBR (Homo sapiens, UniProt P30536); assay: Affinity to brain targets (panel); assay type: binding
Oxytocin = target: T1, Oxytocin (Homo sapiens, UniProt P30559); assay: Affinity to brain targets (panel); assay type: binding
T1 sequence (P30559 1-389): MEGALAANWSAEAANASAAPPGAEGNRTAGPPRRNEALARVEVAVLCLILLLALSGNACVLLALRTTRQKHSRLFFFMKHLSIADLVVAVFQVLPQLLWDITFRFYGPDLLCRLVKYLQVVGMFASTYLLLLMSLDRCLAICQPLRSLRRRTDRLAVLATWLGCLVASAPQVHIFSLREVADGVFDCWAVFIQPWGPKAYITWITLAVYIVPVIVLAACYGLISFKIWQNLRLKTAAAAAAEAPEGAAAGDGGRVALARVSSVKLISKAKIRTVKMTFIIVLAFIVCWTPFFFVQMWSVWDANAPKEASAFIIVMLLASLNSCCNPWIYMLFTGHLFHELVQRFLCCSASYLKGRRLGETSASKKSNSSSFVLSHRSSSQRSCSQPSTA

Smoothened = Smoothened (Homo sapiens, UniProt Q99835); assay: Affinity to brain targets (panel); assay type: binding
Sequence of Smoothened (Q99835 28-787): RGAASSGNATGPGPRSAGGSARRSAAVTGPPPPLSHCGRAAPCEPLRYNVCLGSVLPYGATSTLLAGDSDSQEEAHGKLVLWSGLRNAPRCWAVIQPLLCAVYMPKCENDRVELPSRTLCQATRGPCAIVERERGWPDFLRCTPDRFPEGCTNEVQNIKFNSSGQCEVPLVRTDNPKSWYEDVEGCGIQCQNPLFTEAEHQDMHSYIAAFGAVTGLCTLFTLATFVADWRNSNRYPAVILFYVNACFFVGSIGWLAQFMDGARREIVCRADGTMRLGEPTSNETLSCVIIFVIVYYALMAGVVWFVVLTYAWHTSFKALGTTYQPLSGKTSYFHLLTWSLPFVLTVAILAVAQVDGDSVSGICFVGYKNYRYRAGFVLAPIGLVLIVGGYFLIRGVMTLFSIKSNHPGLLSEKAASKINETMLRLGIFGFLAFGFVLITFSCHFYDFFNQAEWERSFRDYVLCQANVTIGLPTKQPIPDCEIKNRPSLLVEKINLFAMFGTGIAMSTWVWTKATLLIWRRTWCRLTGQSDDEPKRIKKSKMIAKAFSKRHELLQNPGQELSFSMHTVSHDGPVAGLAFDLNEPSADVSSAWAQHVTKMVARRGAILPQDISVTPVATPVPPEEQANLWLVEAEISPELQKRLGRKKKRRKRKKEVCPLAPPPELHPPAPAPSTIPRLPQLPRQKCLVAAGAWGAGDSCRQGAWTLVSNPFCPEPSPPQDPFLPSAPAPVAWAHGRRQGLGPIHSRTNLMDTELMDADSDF

KA = assay: Affinity to brain targets (panel); assay type: binding; details: KA (KAR): Kainate
DAT = DAT (Homo sapiens, UniProt Q01959); assay: Affinity to brain targets (panel); assay type: binding; details: DAT: dopamine transporters
DOR = DOR (Homo sapiens, UniProt P41143); assay: Affinity to brain targets (panel); assay type: binding; details: DOR: delta opioid receptors
Sequence of DOR (P41143 whole entry): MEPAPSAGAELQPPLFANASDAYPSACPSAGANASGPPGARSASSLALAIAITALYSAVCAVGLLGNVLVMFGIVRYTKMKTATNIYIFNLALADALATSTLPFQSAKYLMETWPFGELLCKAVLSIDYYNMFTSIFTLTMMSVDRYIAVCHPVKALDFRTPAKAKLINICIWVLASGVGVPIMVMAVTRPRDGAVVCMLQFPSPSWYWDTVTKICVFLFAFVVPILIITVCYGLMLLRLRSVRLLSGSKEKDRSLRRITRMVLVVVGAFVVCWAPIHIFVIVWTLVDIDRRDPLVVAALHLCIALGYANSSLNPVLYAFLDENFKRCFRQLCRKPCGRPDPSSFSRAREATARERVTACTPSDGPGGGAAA

EP = assay: Affinity to brain targets (panel); assay type: binding; details: EP: prostanoid receptors
GABA = assay: Affinity to brain targets (panel); assay type: binding
HERG = HERG (Homo sapiens, UniProt Q12809); assay: Affinity to brain targets (panel); assay type: binding; details: HERG: human ether-a-go-go
Sequence of HERG (Q12809 whole entry): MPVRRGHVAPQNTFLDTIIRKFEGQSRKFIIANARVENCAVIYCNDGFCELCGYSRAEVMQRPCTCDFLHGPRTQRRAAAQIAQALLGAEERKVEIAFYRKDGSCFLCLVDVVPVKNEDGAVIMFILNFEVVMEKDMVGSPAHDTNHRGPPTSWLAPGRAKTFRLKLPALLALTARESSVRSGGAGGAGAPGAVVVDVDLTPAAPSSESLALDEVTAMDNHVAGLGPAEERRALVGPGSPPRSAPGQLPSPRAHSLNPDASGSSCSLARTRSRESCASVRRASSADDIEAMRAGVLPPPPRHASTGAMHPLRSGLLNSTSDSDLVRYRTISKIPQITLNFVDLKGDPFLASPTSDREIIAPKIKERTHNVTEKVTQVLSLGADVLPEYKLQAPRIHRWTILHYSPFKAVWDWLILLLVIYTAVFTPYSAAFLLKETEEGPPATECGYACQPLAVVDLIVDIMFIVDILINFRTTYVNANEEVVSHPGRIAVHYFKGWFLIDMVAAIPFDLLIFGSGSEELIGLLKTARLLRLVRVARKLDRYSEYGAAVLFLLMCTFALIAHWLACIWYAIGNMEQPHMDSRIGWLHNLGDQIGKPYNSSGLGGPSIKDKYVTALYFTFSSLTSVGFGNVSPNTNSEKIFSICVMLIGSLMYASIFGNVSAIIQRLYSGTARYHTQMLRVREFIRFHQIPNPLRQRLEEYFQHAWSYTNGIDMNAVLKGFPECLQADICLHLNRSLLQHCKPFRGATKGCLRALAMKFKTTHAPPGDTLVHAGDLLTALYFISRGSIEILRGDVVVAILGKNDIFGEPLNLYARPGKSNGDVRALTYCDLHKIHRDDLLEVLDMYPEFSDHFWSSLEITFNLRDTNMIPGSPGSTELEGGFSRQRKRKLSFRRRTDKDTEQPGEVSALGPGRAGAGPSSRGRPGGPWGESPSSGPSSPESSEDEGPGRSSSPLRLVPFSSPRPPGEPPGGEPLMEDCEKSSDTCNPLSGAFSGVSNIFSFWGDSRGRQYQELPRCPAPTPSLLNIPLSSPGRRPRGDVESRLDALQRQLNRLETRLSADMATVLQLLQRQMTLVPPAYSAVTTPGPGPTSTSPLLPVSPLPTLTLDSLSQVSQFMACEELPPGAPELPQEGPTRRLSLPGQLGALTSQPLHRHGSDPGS

KOR = KOR (Homo sapiens, UniProt P41145); assay: Affinity to brain targets (panel); assay type: binding; details: KOR: kappa opioid receptors
M = assay: Affinity to brain targets (panel); assay type: binding; details: M: muscarinic
H3, H4 = assay: Affinity to brain targets (panel); assay type: binding; details: H3, H4: histamine
MDR1 = MDR1 (Homo sapiens, UniProt P08183); assay: Affinity to brain targets (panel); assay type: binding; details: MDR1: multidrug resistance
H1 = H1 (Homo sapiens, UniProt P35367); assay: Affinity to brain targets (panel); assay type: binding; details: H1: histamine
Sequence of H1 (P35367 whole entry): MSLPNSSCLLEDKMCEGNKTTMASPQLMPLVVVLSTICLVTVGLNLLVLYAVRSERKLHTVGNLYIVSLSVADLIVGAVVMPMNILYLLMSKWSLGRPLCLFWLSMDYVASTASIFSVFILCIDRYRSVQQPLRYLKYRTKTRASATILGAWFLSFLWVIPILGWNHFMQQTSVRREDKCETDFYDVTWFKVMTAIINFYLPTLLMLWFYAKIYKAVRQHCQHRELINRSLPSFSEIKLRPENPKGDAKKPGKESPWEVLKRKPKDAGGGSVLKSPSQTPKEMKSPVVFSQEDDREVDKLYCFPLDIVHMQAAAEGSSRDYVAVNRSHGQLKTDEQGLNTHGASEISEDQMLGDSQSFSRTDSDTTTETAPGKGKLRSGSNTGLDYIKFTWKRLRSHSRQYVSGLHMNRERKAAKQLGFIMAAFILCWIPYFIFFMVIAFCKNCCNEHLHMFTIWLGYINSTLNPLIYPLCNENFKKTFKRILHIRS

H2 = H2 (Homo sapiens, UniProt P25021); assay: Affinity to brain targets (panel); assay type: binding; details: H2: histamine
Sequence of H2 (P25021 whole entry): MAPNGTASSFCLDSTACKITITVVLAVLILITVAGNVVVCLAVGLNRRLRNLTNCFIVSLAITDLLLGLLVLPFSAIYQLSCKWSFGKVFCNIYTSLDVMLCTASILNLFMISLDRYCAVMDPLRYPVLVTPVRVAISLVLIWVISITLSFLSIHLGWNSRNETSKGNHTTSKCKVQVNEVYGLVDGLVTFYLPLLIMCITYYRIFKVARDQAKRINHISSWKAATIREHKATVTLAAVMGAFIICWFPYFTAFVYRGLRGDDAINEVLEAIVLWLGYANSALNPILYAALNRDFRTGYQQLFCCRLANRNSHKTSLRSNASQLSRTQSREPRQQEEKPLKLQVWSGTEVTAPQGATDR

MOR = MOR (Homo sapiens, UniProt P35372); assay: Affinity to brain targets (panel); assay type: binding; details: MOR: mu opioid receptor
Sequence of MOR (P35372 whole entry): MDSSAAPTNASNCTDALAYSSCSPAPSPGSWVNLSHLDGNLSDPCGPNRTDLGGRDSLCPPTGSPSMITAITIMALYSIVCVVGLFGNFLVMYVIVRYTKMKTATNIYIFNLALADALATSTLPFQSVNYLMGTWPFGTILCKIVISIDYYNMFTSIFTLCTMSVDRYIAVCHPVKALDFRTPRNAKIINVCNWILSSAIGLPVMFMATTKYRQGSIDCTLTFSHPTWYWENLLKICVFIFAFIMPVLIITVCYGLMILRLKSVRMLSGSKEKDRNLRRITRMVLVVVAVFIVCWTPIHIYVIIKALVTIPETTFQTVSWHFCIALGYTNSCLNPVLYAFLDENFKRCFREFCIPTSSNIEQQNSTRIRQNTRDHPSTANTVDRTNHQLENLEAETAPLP

NMDA = assay: Affinity to brain targets (panel); assay type: binding
SERT = SERT (Homo sapiens, UniProt P31645); assay: Affinity to brain targets (panel); assay type: binding; details: SERT: serotonin transporter
Sigma2 = Sigma2 (Homo sapiens, UniProt Q5BJF2); assay: Affinity to brain targets (panel); assay type: binding; details: Sigma2 (Sigma 2)
Sequence of Sigma2 (Q5BJF2 whole entry): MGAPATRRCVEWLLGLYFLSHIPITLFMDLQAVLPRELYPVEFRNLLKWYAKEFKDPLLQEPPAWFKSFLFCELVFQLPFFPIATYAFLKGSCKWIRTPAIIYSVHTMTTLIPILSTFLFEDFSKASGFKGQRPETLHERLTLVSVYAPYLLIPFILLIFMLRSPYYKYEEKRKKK

I = assay: Affinity to brain targets (panel); assay type: binding
VMAT = assay: Affinity to brain targets (panel); assay type: binding; details: VMAT (VMAT 1,2): vesicular monoamine transporter
NT = assay: Affinity to brain targets (panel); assay type: binding; details: NT: neurotrophin
PKC = assay: Affinity to brain targets (panel); assay type: binding; details: PKC: Protein kinase C
5-HT1A-1E = assay: Affinity to brain targets (panel); assay type: binding
5-HT2A-2C = assay: Affinity to brain targets (panel); assay type: binding
5-HT3-7 = assay: Affinity to brain targets (panel); assay type: binding
α2A-2C = assay: Affinity to brain targets (panel); assay type: binding
β1-3 = assay: Affinity to brain targets (panel); assay type: binding
CB1, CB2 = assay: Affinity to brain targets (panel); assay type: binding
D1-D5 = assay: Affinity to brain targets (panel); assay type: binding
Microtubule = details: MT; reference 12; cited from earlier work
MT = details: listed under MT; reference 12; cited from earlier work
panel of kinases = details: cited from earlier work
[1] = references 12-14; cited from earlier work
tumor xenografts = details: references 12-14; cited from earlier work

COc1ccc(N(C)c2ncnc3occ(C)c23)cc1 [HD-800, reference compound]
Ki (Adenosine): > 10 µM | Ki (α1A-1C): > 10 µM | Ki (BZP): > 10 µM | Ki (Ca++ channel): > 10 µM | Ki (AMPA): > 10 µM | Ki (NET): > 10 µM | Ki (NK): > 10 µM | Ki (Sigma1): > 10 µM | Ki (Na+ Channel): > 10 µM | Ki (mGluR): > 10 µM | Ki (NOP): > 10 µM | Ki (PBR): 2.36 µM | Ki (Oxytocin): > 10 µM | Ki (Smoothened): > 10 µM | Ki (KA): > 10 µM | Ki (DAT): > 10 µM | Ki (DOR): > 10 µM | Ki (EP): > 10 µM | Ki (GABA): > 10 µM | Ki (HERG): > 10 µM | Ki (KOR): > 10 µM | Ki (M): > 10 µM | Ki (H3, H4): > 10 µM | Ki (MDR1): > 10 µM | Ki (H1): > 10 µM | Ki (H2): > 10 µM | Ki (MOR): > 10 µM | Ki (NMDA): > 10 µM | Ki (SERT): > 10 µM | Ki (Sigma2): > 10 µM | Ki (I): > 10 µM | Ki (VMAT): > 10 µM | Ki (NT): > 10 µM | Ki (PKC): > 10 µM | Ki (5-HT1A-1E): > 10 µM | Ki (5-HT2A-2C): > 10 µM | Ki (5-HT3-7): > 10 µM | Ki (α2A-2C): > 10 µM | Ki (β1-3): > 10 µM | Ki (CB1, CB2): > 10 µM | Ki (D1-D5): > 10 µM | IC50 (Microtubule): 0.0032 µM | GI50 (MT): < 0.01 µM | binding to a panel / variety of kinases (panel of kinases): selective | BBB penetration [1]: BBB penetrant | tumor growth inhibition (TGI) compared with paclitaxel (tumor xenografts): higher tumor growth inhibition (TGI) than paclitaxel
